Biological target: human serum albumin (HSA) (Homo sapiens, UniProt P02768)
Experiment: zonal elution, high-performance affinity chromatography on entrapped HSA
Type: binding

Chain of human serum albumin (HSA) (P02768 25-609): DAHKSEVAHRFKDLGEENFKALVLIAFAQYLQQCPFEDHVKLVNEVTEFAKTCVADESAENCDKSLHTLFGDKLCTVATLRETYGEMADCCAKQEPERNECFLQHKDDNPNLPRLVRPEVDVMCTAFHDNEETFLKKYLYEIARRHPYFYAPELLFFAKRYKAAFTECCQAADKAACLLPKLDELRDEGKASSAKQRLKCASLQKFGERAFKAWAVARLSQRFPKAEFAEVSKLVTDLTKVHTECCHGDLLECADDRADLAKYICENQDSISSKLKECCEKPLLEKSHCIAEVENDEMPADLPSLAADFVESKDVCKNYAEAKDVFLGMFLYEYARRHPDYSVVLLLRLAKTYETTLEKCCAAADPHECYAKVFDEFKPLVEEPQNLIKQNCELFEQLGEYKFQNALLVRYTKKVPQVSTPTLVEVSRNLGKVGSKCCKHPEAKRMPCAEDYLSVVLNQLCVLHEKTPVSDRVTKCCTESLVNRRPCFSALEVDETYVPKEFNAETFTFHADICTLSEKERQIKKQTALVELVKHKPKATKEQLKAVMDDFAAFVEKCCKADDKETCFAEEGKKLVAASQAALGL

Row | Kd | SMILES
1 | 625 µM | O=C(N[C@H](CO)[C@H](O)c1ccc([N+](=O)[O-])cc1)C(Cl)Cl [chloramphenicol]
2 | 16.1 µM | CNCCC=C1c2ccccc2CCc2ccccc21 [nortriptyline]

Row | SMILES | Kd
3 | CN(C)CCC=C1c2ccccc2CCc2ccccc21 [amitriptyline] | 17.9 µM
